Key:
Format in all cases: functional
[1] = tested on: Botrytis cinerea; assay: Antimicrobial activity against Botrytis cinerea DO1 assessed as drug concentration required to form 10 mm zone of inhibition by agar diffusion method
[2] = tested on: Fusarium culmorum; assay: Antimicrobial activity against Fusarium culmorum assessed as drug concentration required to form 10 mm zone of inhibition by agar diffusion method
[3] = tested on: Parastagonospora nodorum; assay: Antimicrobial activity against Leptosphaeria nodorum JO2 assessed as drug concentration required to form 10 mm zone of inhibition by agar diffusion method
[4] = Antimicrobial activity against Pellicularia sasakii JO3 assessed as drug concentration required to form 10 mm zone of inhibition by agar diffusion method
[5] = tested on: Botrytis cinerea; assay: Antimicrobial activity against Botrytis cinerea A06 assessed as drug concentration required to form 10 mm zone of inhibition by agar diffusion method
[6] = tested on: Oculimacula yallundae; assay: Antimicrobial activity against Pseudocercosporella herpotrichoides 008 assessed as drug concentration required to form 10 mm zone of inhibition by agar diffusion method
[7] = tested on: Alternaria mali; assay: Antimicrobial activity against Alternaria mali P37 assessed as drug concentration required to form 10 mm zone of inhibition by agar diffusion method
[8] = tested on: Phytophthora infestans; assay: Antimicrobial activity against Phytophthora infestans JO8 assessed as drug concentration required to form 10 mm zone of inhibition by agar diffusion method

Molecule | MAC [1] | MAC [2] | MAC [3] | MAC [4] | MAC [5] | MAC [6] | MAC [7] | MAC [8]
C/C1=C\C(C)C(O)/C(C)=C/C(O[C@H]2O[C@H](CO)[C@@H](O)[C@H](O[C@@H]3O[C@H](CO)[C@@H](O)[C@H](O)[C@@H]3O)[C@@H]2O)C(O)C(C)C(O)CC(O)CC(O)C(C)C(O)CC(O)CC(O)C(C)C(O)CC(O)CC(O[C@@H]2O[C@H](C)[C@@H](O)[C@H](N)[C@H]2O)C(C)C(C(C)CC(C)CCCCCCN)OC(=O)CCC(C)C(O)CC/C=C/C(C)C1O (some centres undefined) [MATHEMYCIN B] | 62.5 mg/L | 62.5 mg/L | 125 mg/L | 62.5 mg/L | 62.5 mg/L | 250 mg/L | 62.5 mg/L | –
maneb | – | – | – | – | – | 125 mg/L | – | –
MANCOZEB | – | – | – | – | – | – | – | 62.5 mg/L

Reference: ChEMBL document CHEMBL1144055, “Mathemycin B, a new antifungal macrolactone from actinomycete species HIL Y-8620959” (1999)
